Measurements as given in PubChem BioAssay AID328 (DTP/NCI, 2004).
Values joined by “and” are separate entries in the source; they are usually repeats but may differ in a detail not shown here. Equal entries are not always repeated. Inconclusive results and toxic doses are left out. The calls were made as follows: active = survival T/C of 150% or more; inactive = T/C below 125% in these data.

System: BDF1 mice, P388 leukemia ip, median survival T/C
Assay: NCI In Vivo Anticancer Drug Screen. Data for tumor model P388 Leukemia (intraperitoneal) in B6D2F1 (BDF1) mice
Details: endpoint: median survival time, higher = longer survival
Summary of the method: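 Transplantable tumour in mice; compound vs vehicle dosing; survival scored; ratio of treated to control reported.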

[1] = dose: 400.0 mg/kg/injection, schedule: Q04DX003 (ip), vehicle: saline with Tween-80
[2] = dose: 50.0 mg/kg/injection, schedule: Q01DX009 (ip), vehicle: saline
[3] = dose: 100.0 mg/kg/injection, schedule: Q01DX009 (ip), vehicle: saline
[4] = dose: 200.0 mg/kg/injection, schedule: Q01DX009 (ip), vehicle: saline
[5] = dose: 100.0 mg/kg/injection, schedule: Q04DX003 (ip), vehicle: saline
[6] = dose: 200.0 mg/kg/injection, schedule: Q04DX003 (ip), vehicle: saline
[7] = dose: 400.0 mg/kg/injection, schedule: Q04DX003 (ip), vehicle: saline
[8] = dose: 50.0 mg/kg/injection, schedule: Q01DX009 (ip), vehicle: saline with Tween-80
[9] = dose: 100.0 mg/kg/injection, schedule: Q01DX009 (ip), vehicle: saline with Tween-80
[10] = dose: 200.0 mg/kg/injection, schedule: Q01DX009 (ip), vehicle: saline with Tween-80
[11] = dose: 400.0 mg/kg/injection, schedule: Q01DX009 (ip), vehicle: saline with Tween-80

Measured: T/C

O=C1C=CC(=O)N1c1ccc(Cl)cc1
inactive: dose: 1.25 mg/kg/injection, schedule: Q04DX003 (ip), vehicle: Klucel (hydroxypropylcellulose) (HPC) 114 % of control | dose: 2.5 mg/kg/injection, schedule: Q04DX003 (ip), vehicle: Klucel (hydroxypropylcellulose) (HPC) 122 % of control | dose: 5.0 mg/kg/injection, schedule: Q04DX003 (ip), vehicle: Klucel (hydroxypropylcellulose) (HPC) 108 % of control | dose: 10.0 mg/kg/injection, schedule: Q04DX003 (ip), vehicle: Klucel (hydroxypropylcellulose) (HPC) 107 % of control | dose: 20.0 mg/kg/injection, schedule: Q01DX009 (ip), vehicle: Klucel (hydroxypropylcellulose) (HPC) 115 % of control
active: dose: 2.5 mg/kg/injection, schedule: Q01DX009 (ip), vehicle: Klucel (hydroxypropylcellulose) (HPC) 159 % of control

BrCCN(CCBr)c1ccc2c3c(cccc13)-c1ccccc1-2
inactive: dose: 0.13 mg/kg/injection, schedule: Q01DX009 (ip), vehicle: saline 107 % of control | dose: 0.25 mg/kg/injection, schedule: Q01DX009 (ip), vehicle: saline 92 % of control | dose: 0.5 mg/kg/injection, schedule: Q01DX009 (ip), vehicle: saline 111 % of control | dose: 0.68 mg/kg/injection, schedule: Q01DX009 (ip), vehicle: Klucel (hydroxypropylcellulose) (HPC) 107 % of control | dose: 1.0 mg/kg/injection, schedule: Q01DX009 (ip), vehicle: Klucel (hydroxypropylcellulose) (HPC) 111 % of control | dose: 1.0 mg/kg/injection, schedule: Q01DX009 (ip), vehicle: saline 111 % of control | dose: 30.0 mg/kg/injection, schedule: Q01DX009 (ip), vehicle: Klucel (hydroxypropylcellulose) (HPC) 115 % of control | dose: 176.0 mg/kg/injection, schedule: Q04DX003 (ip), vehicle: saline with Tween-80 104 % of control | [1] 86 % of control
active: dose: 3.12 mg/kg/injection, schedule: Q01DX009 (ip), vehicle: Klucel (hydroxypropylcellulose) (HPC) 170 % of control | dose: 21.0 mg/kg/injection, schedule: Q01DX009 (ip), vehicle: Klucel (hydroxypropylcellulose) (HPC) 173 % of control | dose: 45.0 mg/kg/injection, schedule: Q01DX009 (ip), vehicle: Klucel (hydroxypropylcellulose) (HPC) 220 % of control | dose: 70.0 mg/kg/injection, schedule: Q01DX009 (ip), vehicle: Klucel (hydroxypropylcellulose) (HPC) 195 % of control

COc1cc2c(cc1OC)C1CNC(=O)C1C(c1ccccc1)C2 (configuration not stated)
inactive: dose: 50.0 mg/kg/injection, schedule: Q01DX001 (ip), vehicle: Klucel (hydroxypropylcellulose) (HPC) 100 % of control | dose: 100.0 mg/kg/injection, schedule: Q01DX001 (ip), vehicle: Klucel (hydroxypropylcellulose) (HPC) 95 % of control | dose: 200.0 mg/kg/injection, schedule: Q01DX001 (ip), vehicle: Klucel (hydroxypropylcellulose) (HPC) 100 % of control | dose: 400.0 mg/kg/injection, schedule: Q01DX001 (ip), vehicle: Klucel (hydroxypropylcellulose) (HPC) 96 % of control

CN(C)C(=O)CCCCC(=O)N(C)C
inactive: dose: 1.0 mg/kg/injection, schedule: Q01DX001 (ip), vehicle: saline 96 % of control | dose: 2.0 mg/kg/injection, schedule: Q01DX001 (ip), vehicle: saline 110 % of control | dose: 4.0 mg/kg/injection, schedule: Q01DX001 (ip), vehicle: saline 106 % of control | dose: 8.0 mg/kg/injection, schedule: Q01DX001 (ip), vehicle: saline 102 % of control | dose: 16.0 mg/kg/injection, schedule: Q01DX001 (ip), vehicle: saline 96 % of control | dose: 32.0 mg/kg/injection, schedule: Q01DX001 (ip), vehicle: saline 100 % of control | dose: 64.0 mg/kg/injection, schedule: Q01DX001 (ip), vehicle: saline 95 % of control | dose: 128.0 mg/kg/injection, schedule: Q01DX001 (ip), vehicle: saline 102 % of control

O=C(O)c1cc(O)c(O)c(O)c1
inactive: dose: 1.25 mg/kg/injection, schedule: Q01DX009 (ip), vehicle: saline 90 % of control | dose: 2.5 mg/kg/injection, schedule: Q01DX009 (ip), vehicle: saline 95 % of control | dose: 5.0 mg/kg/injection, schedule: Q01DX009 (ip), vehicle: saline 95 % of control | dose: 10.0 mg/kg/injection, schedule: Q01DX009 (ip), vehicle: saline 115 % of control | dose: 10.0 mg/kg/injection, schedule: Q01DX010 (ip), vehicle: saline 110 % of control | dose: 20.0 mg/kg/injection, schedule: Q01DX010 (ip), vehicle: saline 100 % of control | dose: 40.0 mg/kg/injection, schedule: Q01DX010 (ip), vehicle: saline 90 % of control | [2] 100 % of control | [3] 100 % of control | [4] 104 % of control

CS(C)=O.CS(C)=O.[Cl][Rh]([Cl])([Cl])[Cl]
inactive: dose: 12.5 mg/kg/injection, schedule: Q01DX009 (ip), vehicle: saline 120 % of control | dose: 22.0 mg/kg/injection, schedule: Q01DX009 (ip), vehicle: saline 116 % of control and 120 % of control | dose: 33.0 mg/kg/injection, schedule: Q01DX009 (ip), vehicle: saline 95 % of control and 116 % of control
active: [2] 166 % of control

CCCCCCCCCC(=O)CCC
inactive: [5] 100 % of control | [6] 100 % of control | [7] 104 % of control

CN(C)c1ccc(/C=C/c2ccnc3c(O)ccc(O)c23)cc1
inactive: [8] 112 % of control | [9] 124 % of control

CC(=N\O)/C(C)=N/O.CC(=N\O)/C(C)=N/O.[Cu]
inactive: dose: 3.0 mg/kg/injection, schedule: Q01DX009 (ip), vehicle: Klucel (hydroxypropylcellulose) (HPC) 100 % of control | dose: 6.25 mg/kg/injection, schedule: Q04DX003 (ip), vehicle: Klucel (hydroxypropylcellulose) (HPC) 118 % of control | dose: 12.5 mg/kg/injection, schedule: Q04DX003 (ip), vehicle: Klucel (hydroxypropylcellulose) (HPC) 118 % of control

CCCC(C(O)c1ccc(OC)cc1)C(O)(C(F)(F)F)C(F)(F)F (configuration not stated)
inactive: dose: 100.0 mg/kg/injection, schedule: Q04DX003 (ip), vehicle: other 90 % of control | dose: 200.0 mg/kg/injection, schedule: Q04DX003 (ip), vehicle: other 105 % of control | dose: 400.0 mg/kg/injection, schedule: Q04DX003 (ip), vehicle: other 105 % of control

COc1cc(OC)cc(C2N(Cc3ccc(OC)c(OC)c3)CCN2Cc2ccc(OC)c(OC)c2)c1
inactive: [9] 100 % of control | dose: 100.0 mg/kg/injection, schedule: Q04DX003 (ip), vehicle: saline with Tween-80 100 % of control | [10] 109 % of control | dose: 200.0 mg/kg/injection, schedule: Q04DX003 (ip), vehicle: saline with Tween-80 100 % of control | [11] 109 % of control | [1] 115 % of control

O=C1NC(O)CCN1C1OC(CO)C(O)C1O (configuration not stated)
inactive: [2] 89 % of control | [3] 100 % of control and 113 % of control | [5] 116 % of control | [4] 101 % of control and 104 % of control | [6] 108 % of control | dose: 400.0 mg/kg/injection, schedule: Q01DX009 (ip), vehicle: saline 100 % of control and 117 % of control | [7] 95 % of control

CN=C1c2ccccc2C2(c3ccccc3)C1N2C (configuration not stated)
inactive: dose: 37.5 mg/kg/injection, schedule: Q01DX009 (ip), vehicle: saline with Tween-80 104 % of control | dose: 75.0 mg/kg/injection, schedule: Q01DX009 (ip), vehicle: saline with Tween-80 109 % of control | dose: 150.0 mg/kg/injection, schedule: Q01DX009 (ip), vehicle: saline with Tween-80 118 % of control

O=C(C(=O)c1ccc(Br)cc1)c1ccc(Br)cc1
inactive: [9] 96 % of control | [10] 98 % of control | [11] 98 % of control

COc1cccc(CC(N)=O)c1OC
inactive: dose: 25.0 mg/kg/injection, schedule: Q01DX009 (ip), vehicle: saline 99 % of control | [2] 99 % of control | dose: 50.0 mg/kg/injection, schedule: Q04DX003 (ip), vehicle: saline 109 % of control | [3] 97 % of control | [5] 87 % of control and 99 % of control | [4] 92 % of control | [6] 90 % of control and 94 % of control | [7] 100 % of control

CC(=O)C1CC2C=CCC(C2)C1 (configuration not stated)
inactive: dose: 50.0 mg/kg/injection, schedule: Q01DX001 (ip), vehicle: saline with Tween-80 95 % of control | dose: 100.0 mg/kg/injection, schedule: Q01DX001 (ip), vehicle: saline with Tween-80 120 % of control | dose: 200.0 mg/kg/injection, schedule: Q01DX001 (ip), vehicle: saline with Tween-80 95 % of control

CC(=O)Oc1ccc2c(c1)CCC1C2CCC2(C)C1CCC21CO1 (configuration not stated)
inactive: [8] 90 % of control | [9] 97 % of control | [10] 98 % of control

CCN(CC)CCCC(C)NCCCN (configuration not stated)
inactive: [2] 96 % of control | [3] 96 % of control | [4] 94 % of control
